Laboratory results published in EP1526135A1, “Azabenzodiazepines as pde4 inhibitors” (Warner-Lambert Company LLC, priority 2003, dated 2005).

Tested on: type 4 phosphodiesterases
Test: Inhibition of type 4 phosphodiesterase enzymatic activity (cytosolic preparation from U937 cells)
Format: biochemical
Conditions: PDE4 from cytosolic preparation of human cell line U937; inhibitor concentration range 0.1 to 100 µM
Protocol: The capacity of the compounds of formula (I) of the invention to inhibit cyclic nucleotide phosphodiesterases is evaluated by measuring their IC50 (concentration needed to inhibit 50% of the enzymatic activity). In the case of PDE4 enzymes, this value is compared to the IC50 value for rolipram, a reference inhibitor for PDE4 enzymes.
The type 4 phosphodiesterases are obtained from a cytosolic preparation extracted from a cell line of human origin, U937, according to the method adapted from T. J. Torphy et al., 1992, J. Pharm. Exp. Ther. 263: 1195-1205.
The measurement of the enzymatic activity for the various types of PDE, and in particular the PDE4 enzymes, is carried out according to a method adapted from W. J. Thomson et al. 1979, Advances in Cyclic Nucleotide Research, Vol. 10: 69-92, ed. G. Brooker et al. Raven Press, NY.
For the determination of the IC50 value, the enzymatic activity is measured in the presence of the inhibitor in a concentration range from 0.1 to 100 µM.

SMILES | IC50 [µM]
COc1cc2c3c(n1)C(c1ccccc1)=NC(NC(=O)c1cccnc1)C(=O)N3CC2 (stereo not drawn) [second enantiomer (Rt = 8.15 min) of compound of Example 1, N-(4-Methoxy-9-oxo-6-phenyl-1,2,8,9-tetrahydro-5,7,9a-triaza-benzo[cd]azulen-8-yl)-nicotinamide] | 73
COc1cc2c3c(n1)C(c1ccccc1)=NC(NC(=O)c1cccnc1)C(=O)N3CC2 (stereo not drawn) [first enantiomer (Rt=5.79 min) of compound of Example 1, N-(4-Methoxy-9-oxo-6-phenyl-1,2,8,9-tetrahydro-5,7,9a-triaza-benzo[cd]azulen-8-yl)-nicotinamide] | 4.3
COc1cc2c3c(n1)C(c1ccccc1)=NC(NC(=O)c1cccnc1)C(=O)N3CC2 (racemic) [racemate of compound of Example 1, N-(4-Methoxy-9-oxo-6-phenyl-1,2,8,9-tetrahydro-5,7,9a-triaza-benzo[cd]azulen-8-yl)-nicotinamide] | 6.1
